Earlier results in paper PMC9814429, “First-in-human phase I dose-escalation and dose-expansion trial of the selective MEK inhibitor HL-085 in patients with advanced melanoma harboring NRAS mutations” (BMC Medicine, 2023).

Test system: NRAS mutant melanoma
Parameters: method as in PMID 28284557
Settings: phase 3, NRAS mutant melanoma

In the case of `Cn1cnc2c(F)c(Nc3ccc(Br)cc3F)c(C(=O)NOCCO)cc21` [binimetinib], the DCR is listed as 58%, the ORR is listed as 15% and the PFS is listed as 2.8 months.
